# Assays:
# Male Sprague Dawley rats = test: Rat forced swim test (FST); assay type: in vivo; settings: Example 3; Compound 18R 1, 3.2 or 10 mg/kg s.c., second injection vehicle or BIIB-104 0.03 mg/kg; 23.5 h before Swim 2
# Method: Animals. Male Sprague Dawley rats, aged 8-10 weeks, are used in the experiments. Animals are housed in groups of 2 under controlled temperature (22±3° C.) and relative humidity (30-70%) conditions, with 12-hour light/dark cycles, and with ad libitum food and water. All efforts are made to minimize suffering.
# Drugs and Drug Administration. Test compounds, vehicle, and the positive control desipramine are administered subcutaneously (s.c.), with doses calculated based on the free base. A pharmacologically inert vehicle is used. All compounds are administered at a volume of 5 mL/kg. Test compounds (in each case, an AMPAR-PAM+an NMDAR-ant together, or either compound alone) and vehicle are administered 0.5 h after the start of the training swim (Swim 1) and 23.5 h before the test swim (Swim 2). Desipramine is administered 3 times, at 23.5 h, 5 h, and 1 h before the test swim (Swim 2), each time at a dose of 20 mg/kg.
# Forced Swim Test (FST). […] Group size is N=10 per treatment. […]
# Behavioral scoring is conducted by observers who are blind to the treatment groups. Animals are continuously observed during Swim 2 and the total time spent engaging in the following behaviors is recorded: immobile, swimming, and climbing. […]
# Drugs and Drug Administration. Test compounds, vehicle, and the positive control desipramine are administered subcutaneously (s.c.), with doses calculated based on the free base. […]
# [1] = system: Male Wistar Han or Wistar Kyoto rats; test: Novel object recognition (NOR) test in CMS rats; assay type: in vivo, rat; settings: stressed rats; third week of drug testing (typically day 17)
# Method: (§1) Animals. Male Wistar Han or Wistar Kyoto rats (Charles River, Sulzfeld, Germany) are brought into the laboratory at the age of 5 weeks (around 100 g), approximately one month before the start of the experiment. Except for the first 10 days after arrival, when the animals are housed in groups of 10, they are singly housed with food and water freely available, and maintained on a 12-h light/dark cycle in constant temperature (22±2° C.) and humidity (45±5%) conditions.
# Drugs and Drug Administration. Test compounds or vehicle are administered subcutaneously (s.c.), with doses calculated based on the free base. A pharmacologically inert vehicle (e.g., saline) is used. All compounds are administered at a volume of 2 mL/kg. […]
# (§2) After sucrose intake has been measured, rats are dosed with BIIB-104 or vehicle once daily for up to 4 weeks (Table 1).
# Novel Object Recognition (NOR) Test. […] Rats are returned to the open field and the duration of exploration of each object is recorded in a 5-min test. A recognition index is calculated according to the formula: time of novel object exploration minus time of familiar object exploration, divided by total exploration time (novel plus familiar objects). During NOR sessions, the number of line crossings is recorded as a measure of locomotor activity.
# All rats (all groups in Table 1) are assessed in the NOR in the third week of drug testing (typically day 17). […]
# [2] = system: Male Wistar Han or Wistar Kyoto rats; test: Chronic mild stress (CMS) procedure, sucrose intake; assay type: in vivo, rat; settings: stressed rats
# Method: as §1
# (§3) Drugs and Drug Administration. Test compounds or vehicle are administered subcutaneously (s.c.), with doses calculated based on the free base. A pharmacologically inert vehicle (e.g., saline) is used. All compounds are administered at a volume of 2 mL/kg. Test compounds (in each case, BIIB-104+Compound 18R together, or either compound alone) and vehicle are administered as described below.
# Chronic Mild Stress (CMS) Procedure and Sucrose Preference. Male rats (250-350 g) are habituated to drinking 1% sucrose to establish a stable level of sucrose intake. […]
# as §2
# Sucrose intake is measured once per week, in each case before drug administration for that day (˜24 h after the previous drug administration). […]
# Male C57BL/6 mice [3] = test: Accelerating rotarod; assay type: in vivo, mouse; settings: Compound 18R 3.2, 10 or 32 mg/kg s.c.; BIIB-104 0.03 mg/kg s.c. 0-30 min prior; 5 min and 30 min after second injection
# Method: Animals. Male C57BL/6 mice (8-10 weeks old) are housed in groups of >2 under standard environmentally controlled conditions (22 to 24° C.; relative humidity of 30 to 70%) with a standard 12-h light cycle. Food and water are available ad libitum.
# as §3, with “compounds and” for “compounds or”, “vehicle” for “vehicle (e.g., saline)”, “of 10” for “of 2”
# Rotarod Procedure. Mice will be trained to stay on a rotating bar (‘rotarod’) on days −4 and −2 by being placed on a bar rotating at 4 rpm for 3 min for 3 sessions separated by ˜10 min. On days −1 and 0, this will be repeated using a faster speed of 15 rpm. Mice that have a fall latency <80 s during training will be omitted from the study. On day 1, mice will be administered (s.c.) vehicle or BIIB-104 (0.03 mg/kg) 0-30 min prior to vehicle or Compound 18R (3.2, 10, or 32 mg/kg), for a total of 8 groups of n=10-12/group. Five min after the second injection, mice will be placed on the rotarod which will accelerate from 4 to 40 rpm over 300 s. The latency of mice to fall will be recorded. […]
# [4] = system: Male Wistar Han or Wistar Kyoto rats; test: Elevated plus maze (EPM) in CMS rats; assay type: in vivo, rat; settings: stressed rats; third week of drug testing (typically day 16); 5-min test
# Method: as §1
# Drugs and Drug Administration. Test compounds or vehicle are administered subcutaneously (s.c.), with doses calculated based on the free base. A pharmacologically inert vehicle (e.g., saline) is used. […]
# as §2
# Elevated Plus Maze (EPM), Animals are tested in two non-transparent boxes, which consist of two open (50×11×40 cm) and two closed (50×11×40 cm) arms. […] The animals are placed in the center of the apparatus and the time spent in each arm, and number of entries into open and closed arms are recorded during a 5-min test.
# All rats (all groups in Table 1) are assessed in the EPM in the third week of drug testing (typically day 16). Stressed vehicle-treated rats (S1) have higher levels of anxiety measured by a lower % time spent in open arms compared to control vehicle-treated rats (C1). […]
# Male C57BL/6 mice [5] = test: Visual discrimination task; assay type: in vivo, mouse; settings: Compound 18R 10, 32 or 100 mg/kg s.c.; BIIB-104 0.03 mg/kg s.c. 0-30 min prior
# Method: Animals Male C57BL/6 mice (8-10 weeks old) are housed in groups of >2 under standard environmentally controlled conditions (22 to 24° C.; relative humidity of 30 to 70%) with a standard 12-h light cycle. Five days prior to the start of operant conditioning experiments, all subjects are placed on a food restriction diet designed to maintain a stable 80-85% of free feeding weight.
# Drugs and Drug Administration. Test compounds and vehicle are administered subcutaneously (s.c.), with doses calculated based on the free base. A pharmacologically inert vehicle is used. All compounds are administered at a volume of 10 mL/kg. Test compounds (in each case, BIIB-104+Compound 18R together, or either compound alone) and vehicle are administered as described below. Mice are tested in a randomized cross-over design such that different compound combinations are tested in the same mice and a sample size of n=8-12/group is achieved. Compound testing sessions are separated by at least 3 days.
# Visual Discrimination Procedure. A cohort of mice is trained to perform the visual discrimination task according to published methods (Dillon et al., 2009, Behavioural Brain Research 204, 67-76). The testing apparatus is a standard operant chamber (Med Associates, St Albans, VT). […]
Molecule,immobility time (Male Sprague Dawley rats),preference for the novel object (recognition index) [1],"sucrose intake ([2]; vs vehicle-treated stressed rats, Compound 18R 1.5 mg/kg i.p. day 1, 24 h later)","durability of the effect on sucrose intake ([2]; Compound 18R day 1, then vehicle (S2) or BIIB-104 0.03 mg/kg s.c. (S4) daily days 2-28)",latency to fall off the rotarod (Male C57BL/6 mice [3]),time spent in open arms [4],visual discrimination test accuracy (Male C57BL/6 mice [5])
CN[C@@]1(c2ccc(F)cc2)CCCCC1=O [Compound 18R],dose-dependent decrease in immobility time,limited preference for exploring the novel object,increase in sucrose intake,1-2 weeks,dose-dependently reduces the latency of mice to fall,"greater time in the open arms than stressed vehicle-treated rats (S1), but less time than unstressed vehicle-treated rats (C1)",dose-dependently decreases visual discrimination test accuracy
"pesampator [BIIB-104, reference compound]",–,–,–,–,does not change latency to fall,–,–
